# In patent publication US20210386367A1, “DEVICES AND SYSTEMS FOR GASTROINTESTINAL MICROBIOME DETECTION AND MANIPULATION” (Progenity, Inc., priority 2018, published 2021):
# Read-outs that look alike come from different tables or passages of the source.
# How the values were obtained:
# [1] = tested on: Streptococcus spp. spontaneous mutants; settings: S. pneumoniae ATCC 49619; CLSI QC range shown in parentheses; cited from earlier work
# [2] = tested on: Streptococcus spp. clinical isolates; test: MIC distribution against clinical isolates; assay type: cell-based; settings: 54 Streptococcus spp. isolates
# Description: (n=19 S. pyogenes, n=20 S. agalactiae and n=20 Viridans group Streptococcus) clinical isolates (μg/mL).
# (§1) As used herein, “minimum inhibitory concentration” or “MIC” refers to the lowest concentration of an antimicrobial agent, for example, an antimicrobial agent as described herein, required to inhibit the growth of an organism. […] “MIC90” represents the MIC value at which ≥90% of the strains within a test population are inhibited; the 90th percentile.
# (§2) Many susceptibility testing methods are known in the art and can be used as described herein (see, e.g., Jorgensen and Ferraro (2009) Clinical Infectious Diseases 49:1749-1755; and Maurer et al. (2017) Infectious Disease Reports 9:6839; the entire contents of each of the foregoing are incorporated herein by reference). For example, antimicrobial susceptibility can be determined using conventional culture based methods such as the broth or agar dilution test. In these dilution tests, the bacterial isolate of interest is inoculated onto different media that include serial dilutions of an antimicrobial agent, and incubated under appropriate conditions (e.g., overnight at 37° C.) to allow for growth to occur. Following the incubation period, the media is examined to determine bacterial growth. The lowest concentration of antibiotic that prevents growth represents the minimal inhibitory concentration (MIC). Broth dilution tests can be miniaturized and mechanized allowing for reproducibility and high throughput.
# [3] = tested on: Viridans group Streptococcus; test: Broth microdilution MIC, 15 clinical isolates; assay type: cell-based; settings: for Mode: modal MIC
# Procedure: (§3) Minimal inhibitory concentration (MIC) values were determined by broth microdilution or agar dilution in accordance with guidelines from the Clinical and Laboratory Standards Institute (CLSI; (1) “Methods for Dilution Antimicrobial Susceptibility Tests for Bacteria That Grow Aerobically; Approved Standard; 11th ed.” CLSI standard M07-A11, 2018; (2) “Performance Standards for Antimicrobial Susceptibility Testing; Twenty-Eighth Informational Supplement,” CLSI document M100-S28, 2018; and (3) “Methods for Antimicrobial Susceptibility Testing of Anaerobic Bacteria; Approved Standard—Eighth Edition,” CLSI document M11-A8, 2012).
# (§4) Tested aerobically by broth microdilution: • Escherichia coli, n=50 • Klebsiella spp., n=50 • Pseudomonas aeruginosa, n=50 • Streptococcus spp., n=50 • Staphylococcus aureus, n=50 • Enterococcus faecalis, n=50 • Enterobacter aerogenes, n=50 • Proteus mirabilis, n=50
# (§5) Broth microdilution testing of aerobic bacteria was conducted in cation-adjusted Mueller Hinton broth (MHBII). For testing streptococci, lysed horse blood (LHB) was added to MHBII broth at a final concentration of 3%. Where LHB was used, it was added after filtering.
# (§6) Broth microdilution susceptibility testing in 96-well microplates was conducted in accordance with CLSI methods (1) and (2). Automated liquid handlers were used to conduct serial dilutions and liquid transfers, including the Multidrop 384 (Labsystems, Helsinki, Finland), Biomek 2000, and the Biomek FX (Beckman Coulter, Fullerton, Calif.). All wells in columns 2 through 12 of a standard 96-well microdilution plate (Costar 3795) were filled with 150 μL of the appropriate diluent. Then, 300 μL of the test agents were added to the wells of column 1 of the plates at 100× the highest final concentration to be tested. Serial two-fold dilutions were made across the rows through column 11 using the Biomek 2000. The wells of column 12 contained no drug and served as the growth control wells. This plate served as the “mother plate” from which MIC assay plates or “daughter plates” were made.
# (§7) The daughter plates were loaded with 190 μL per well of the appropriate medium using the Multidrop 384. The daughter plates were created using the Biomek FX which transferred 2 μL of drug solution from each well of a mother plate to each corresponding well of the daughter plate in a single step. A standardized inoculum of each test organism was prepared per CLSI methods (1) to equal a 0.5 McFarland standard, followed by a dilution of 1:20 for aerobes and 1:10 for anaerobes. The plates were then inoculated with 10 μL of the diluted inoculum using the Biomek 2000 from low to high drug concentration, resulting in a final concentration of approximately 5×10^5 CFU/mL per well. An un-inoculated plate was incubated in parallel for each medium for the purpose of assessing solubility of the drug in the test media.
# (§8) Inoculated plates were stacked 3 or 4 high, covered with a sterile lid on the top plate, placed into boxes with CO2 planchets (streptococci) or plastic bags (all other isolates). Plates were incubated at 35° C. for 16-24 hr in ambient air for aerobes or for 42-48 hr in the anaerobic environment of the Bactron II anaerobe chamber (Sheldon Manufacturing Co.; Cornelius, Oreg.). Following incubation, the microplates were removed from the incubator and viewed from the bottom using a plate viewer. The MIC values were read and recorded as the lowest concentration of drug that inhibited visible growth of the organism as per CLSI methods (1) and (2).
# E. coli MMX 1312 = test: Broth microdilution MIC (time-kill study); assay type: cell-based, Escherichia coli
# [4] = tested on: Veillonella spp. clinical isolates; test: MIC distribution against clinical isolates; assay type: cell-based
# Description: (n=19 V. parvula, n=9 Veillonella spp., n=1 Veillonella dispr., n=1 V. atypica) clinical isolates (μg/mL).
# as §1, §2
# Streptococcus pyogenes = test: Broth microdilution MIC, 19 clinical isolates; assay type: cell-based
# Procedure: as §3, §4, §5, §6, §7, §8
# Streptococcus agalactiae = test: Broth microdilution MIC, 20 clinical isolates; assay type: cell-based
# Procedure: as §3, §4, §5, §6, §7, §8
# [5] = 15 Viridans group Streptococci clinical isolates
# [6] = 15 Viridans group Streptococci clinical isolates, MXF by FDA breakpoints
# [7] = MIC 0.5 μg/mL, 30 Veillonella spp. isolates
# [8] = MIC 1 μg/mL, 30 Veillonella spp. isolates
# [9] = MIC 2 μg/mL, 30 Veillonella spp. isolates
# [10] = MIC 4 μg/mL, 30 Veillonella spp. isolates
# [11] = MIC 8 μg/mL, 30 Veillonella spp. isolates
# [12] = MIC 16 μg/mL, 30 Veillonella spp. isolates
# [13] = MIC 32 μg/mL, 30 Veillonella spp. isolates
# [14] = 20 Streptococcus agalactiae clinical isolates
molecule,measurement,setting,value
CO/N=C(\C(=O)N[C@@H]1C(=O)N2C(C(=O)O)=C(CSc3nc(=O)c(=O)[nH]n3C)CS[C@H]12)c1csc(N)n1 [ceftriaxone],"MIC, CLSI QC range",[1],(0.03-0.12)^1 μg/mL
same,Cumulative percentage of isolates inhibited at MIC,[2]; MIC 0.008 μg/mL,1.9%
same,Number of test isolates at MIC,[2]; MIC 0.008 μg/mL,1
same,Cumulative percentage of isolates inhibited at MIC,[2]; MIC 0.015 μg/mL,35.2%
same,Number of test isolates at MIC,[2]; MIC 0.015 μg/mL,18
same,Cumulative percentage of isolates inhibited at MIC,[2]; MIC 0.03 μg/mL,51.9%
same,Number of test isolates at MIC,[2]; MIC 0.03 μg/mL,9
same,Cumulative percentage of isolates inhibited at MIC,[2]; MIC 0.06 μg/mL,87.0%
same,Number of test isolates at MIC,[2]; MIC 0.06 μg/mL,19
same,Cumulative percentage of isolates inhibited at MIC,[2]; MIC 0.5 μg/mL,98.1%
same,Number of test isolates at MIC,[2]; MIC 0.5 μg/mL,1
same,Cumulative percentage of isolates inhibited at MIC,[2]; MIC 1 μg/mL,100.0%
same,Number of test isolates at MIC,[2]; MIC 1 μg/mL,1
same,MIC50,[3]; [5],0.06 µg/mL
same,MIC90,[3]; [5],0.5 µg/mL
same,MIC range,[3]; [5],0.008 to 1 µg/mL
same,% S,[3]; [6],100%
same,MIC50,"[3]; Streptococcus, read-out: MIC50",0.06 µg/mL
same,MIC90,"[3]; Streptococcus, read-out: MIC90",0.5 µg/mL
same,Mode,[3]; [5],0.06 µg/mL
same,MIC,E. coli MMX 1312; E. coli MMX 1312,4 µg/mL
same,MIC,"E. coli MMX 1312; Escherichia coli, MMX1312, broth microdilution, read-out: MIC",4 µg/mL
same,Cumulative percentage of isolates inhibited at MIC,[4],100.0%
same,Number of test isolates at MIC,[4],1
same,Cumulative percentage of isolates inhibited at MIC,[4]; [7],10.0%
same,Number of test isolates at MIC,[4]; [7],3
same,Cumulative percentage of isolates inhibited at MIC,[4]; [8],23.3%
same,Number of test isolates at MIC,[4]; [8],4
same,Cumulative percentage of isolates inhibited at MIC,[4]; [9],26.7%
same,Number of test isolates at MIC,[4]; [9],1
same,Cumulative percentage of isolates inhibited at MIC,[4]; [10],30.0%
same,Number of test isolates at MIC,[4]; [10],1
same,Cumulative percentage of isolates inhibited at MIC,[4]; [11],40.0%
same,Number of test isolates at MIC,[4]; [11],3
same,Cumulative percentage of isolates inhibited at MIC,[4]; [12],86.7%
same,Number of test isolates at MIC,[4]; [12],14
same,Cumulative percentage of isolates inhibited at MIC,[4]; [13],96.7%
same,Number of test isolates at MIC,[4]; [13],3
same,% S,Streptococcus pyogenes,100%
same,MIC range,Streptococcus pyogenes,0.015 to 0.06 µg/mL
same,Mode,Streptococcus pyogenes,0.015 µg/mL
same,MIC50,"Streptococcus pyogenes; Streptococcus pyogenes, read-out: MIC50",0.015 µg/mL
same,MIC90,"Streptococcus pyogenes; Streptococcus pyogenes, read-out: MIC90",0.03 µg/mL
same,MIC50,"Streptococcus agalactiae; Streptococcus agalactiae, read-out: MIC50",0.06 µg/mL
same,MIC90,"Streptococcus agalactiae; Streptococcus agalactiae, read-out: MIC90",0.06 µg/mL
Penicillin,"MIC, CLSI QC range",[1],(0.06-0.25) μg/mL
same,Cumulative percentage of isolates inhibited at MIC,[2]; MIC 0.008 μg/mL,35.2%
same,Number of test isolates at MIC,[2]; MIC 0.008 μg/mL,9
same,Cumulative percentage of isolates inhibited at MIC,[2]; MIC 1 μg/mL,100.0%
same,Cumulative percentage of isolates inhibited at MIC,[2]; MIC ≤0.004 μg/mL,18.5%
same,Number of test isolates at MIC,[2]; MIC ≤0.004 μg/mL,10
same,MIC50,[3]; [5],0.03 µg/mL
same,MIC90,[3]; [5],1 µg/mL
same,MIC range,[3]; [5],0.008 to 1 µg/mL
same,% I,[3]; [6],40% ^
same,% S,[3]; [6],60%
same,Mode,[3]; [5],0.015 µg/mL
same,% S,Streptococcus pyogenes,100%
same,MIC50,Streptococcus pyogenes,<0.004 µg/mL
same,MIC90,Streptococcus pyogenes,0.008 µg/mL
same,MIC range,Streptococcus pyogenes,≤0.004-0.03^ μg/mL
same,Mode,Streptococcus pyogenes,<0.004 µg/mL
same,MIC50,Streptococcus agalactiae; [14],0.03 µg/mL
same,MIC90,Streptococcus agalactiae; [14],0.03 µg/mL
same,MIC range,Streptococcus agalactiae; [14],0.015 to 0.06 µg/mL
same,% S,"Streptococcus agalactiae; 20 Streptococcus agalactiae clinical isolates, MXF by FDA breakpoints",100%
same,Mode,"Streptococcus agalactiae; modal MIC, 20 Streptococcus agalactiae clinical isolates",0.03 µg/mL
